# Values of other authors as cited in patent US20080275118A1, “HEALTH AND COSMETIC COMPOSITION AND REGIME FOR STIMULATING HAIR GROWTH AND THICKENING ON THE HEAD, INCLUDING THE SCALP, EYELASHES, AND EYEBROWS, AND WHICH DISCOURAGES HAIR LOSS” (priority 2008, published 2008).
# Tested on: scalp hair
# Settings: in man, tests carried out on the scalp; Roenigk 1988
structure (smiles),measurement,value
C=CC(O)(C/C=C/[C@H]1[C@H](O)CC(=O)[C@@H]1C/C=C\CCCC(=O)OC)CCCC (stereo partly shown) [viprostol],hair density,increasing hair density
